This passage reports EC50 and CC50 results from ChEMBL document CHEMBL1250554, “Design and preparation of sterol mimetics as potential antiparasitics” (Bioorg Med Chem, 2010).

One data set deals with Leishmania donovani. As to the kind of experiment: Antiparasitic activity against axenic amastigotes of Leishmania donovani. The class given is functional, organism-based.
The test system of data set [1] is Trypanosoma brucei rhodesiense. As to the kind of experiment: Antiparasitic activity against blood stream form of Trypanosoma brucei rhodesiense. Type of data set: functional, organism-based.
The nature of data set [2]: Cytotoxicity against rat L6 cells. Type of data set: cell-based. Particulars: read-out: TD50 (the source's name).
In the next data set the test system is Trypanosoma cruzi. The data set is described as follows: Antiparasitic activity against amastigotes of Trypanosoma cruzi. Type of data set: functional, organism-based.

The structures appear in SMILES notation.

With `COC(=O)CCCNCCc1ccc(NC(=O)c2ccc(COC(C)=O)cc2)cc1`, the EC50 with Leishmania donovani turned out to be 73 µM; in data set [1], 11.5 µM; with Trypanosoma cruzi, 141 µM. Further, in data set [2], the CC50 is more than 218 µM.
On the same counts, the results for `COC(=O)CCCNCc1ccc(NC(=O)c2ccc(COC(C)=O)cc2)cc1` are 2.6 µM, 78 µM, 207 µM and 161 µM.
On the same counts, the results for `CC(=O)OCc1ccc(NC(=O)N2CCC(CO)C2)cc1` (centres undefined) are 26 µM, 52 µM, more than 308 µM and more than 308 µM.
`COC(=O)CCCNCC1CCN(C(=O)Nc2ccc(COC(C)=O)cc2)C1` (centres undefined): the 50% effective concentration (EC50) is 80 µM in the data set on Leishmania donovani, 40 µM in data set [1] and more than 230 µM with Trypanosoma cruzi. The CC50 in data set [2] is more than 230 µM.
Consider `CC(=O)OCc1ccc(NC(=O)N2CCC(CN3CCCC3=O)C2)cc1` (centres undefined), for which the concentration giving a half-maximal response (EC50) turned out to be 30 µM in the data set with Leishmania donovani, 43 µM in data set [1] and 181 µM in the data set on Trypanosoma cruzi. The CC50 in data set [2] was more than 250 µM.
For the compound `COC(=O)CCCCCNCC1CCN(C(=O)Nc2ccc(COC(C)=O)cc2)C1` (centres undefined), the figures for the EC50 (in the data set with Leishmania donovani; in data set [1]; with Trypanosoma cruzi) were 41 µM, 76 µM and more than 215 µM, respectively. For the same compound, in data set [2], the CC50 is more than 214 µM.

For orientation: EC50 means the concentration that produces a half-maximal response. Lower therefore signals an effect from little substance.
